How the values were obtained:
Type in all cases: in vivo
[1] = test system: Alopecurus myosuroides (ALOMY); assay: Test Example 1 pre-emergence herbicidal activity; conditions: Alopecurus myosuroides, 480 h, rate 250 g/ha, evaluated 20 days later, read-out: Pre-emergence activity ALOMY (100=total damage to plant; 0=no damage to plant)
In short: (§1)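 Pots sown in standard soil were sprayed 1 day (pre-emergence) or 10 days (post-emergence) after sowing with an aqueous spray from an acetone/Emulsogen EL/N-methylpyrrolidone-based formulation. Visual damage was scored 20 days (pre) or 15 days (post) later in the greenhouse, 0 = none to 100 = total.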

[2] = test system: Avena fatua (AVEFA); assay: Test Example 1 pre-emergence herbicidal activity; conditions: rate 250 g/ha, evaluated 20 days later; for pest or weed control at 250 g/ha: Avena fatua, 480 h, read-out: Pre-emergence activity AVEFA (100=total damage to plant; 0=no damage to plant)
In short: as §1

[3] = test system: Digitaria sanguinalis (DIGSA); assay: Test Example 1 pre-emergence herbicidal activity; conditions: Digitaria sanguinalis, 480 h, rate 250 g/ha, evaluated 20 days later, read-out: Pre-emergence activity DIGSA (100=total damage to plant; 0=no damage to plant)
In short: as §1

[4] = test system: Echinochloa crus-galli (ECHCG); assay: Test Example 1 pre-emergence herbicidal activity; conditions: Echinochloa crus-galli, 480 h, rate 250 g/ha, evaluated 20 days later, read-out: Pre-emergence activity ECHCG (100=total damage to plant; 0=no damage to plant)
In short: as §1

[5] = test system: Lolium perenne (LOLPE); assay: Test Example 1 pre-emergence herbicidal activity; conditions: Lolium perenne, 480 h, rate 250 g/ha, evaluated 20 days later, read-out: Pre-emergence activity LOLPE (100=total damage to plant; 0=no damage to plant)
In short: as §1

[6] = test system: Setaria faberi (SETFA); assay: Test Example 1 pre-emergence herbicidal activity; conditions: Setaria faberi, 480 h, rate 250 g/ha, evaluated 20 days later, read-out: Pre-emergence activity SETFA (100=total damage to plant; 0=no damage to plant)
In short: as §1

[7] = test system: Alopecurus myosuroides (ALOMY); assay: Test Example 1 post-emergence herbicidal activity; conditions: 360 h, rate 125 g/ha, evaluated 15 days later, read-out: Post-emergence activity ALOMY (100=total damage to plant; 0=no damage to plant)
In short: as §1

[8] = test system: Avena fatua (AVEFA); assay: Test Example 1 post-emergence herbicidal activity; conditions: 360 h, rate 125 g/ha, evaluated 15 days later, read-out: Post-emergence activity AVEFA (100=total damage to plant; 0=no damage to plant)
In short: as §1

[9] = test system: Digitaria sanguinalis (DIGSA); assay: Test Example 1 post-emergence herbicidal activity; conditions: rate 125 g/ha, evaluated 15 days later; for pest or weed control at 125 g/ha: 360 h, read-out: Post-emergence activity DIGSA (100=total damage to plant; 0=no damage to plant)
In short: as §1

[10] = test system: Echinochloa crus-galli (ECHCG); assay: Test Example 1 post-emergence herbicidal activity; conditions: 360 h, rate 125 g/ha, evaluated 15 days later, read-out: Post-emergence activity ECHCG (100=total damage to plant; 0=no damage to plant)
In short: as §1

[11] = test system: Lolium perenne (LOLPE); assay: Test Example 1 post-emergence herbicidal activity; conditions: 360 h, rate 125 g/ha, evaluated 15 days later, read-out: Post-emergence activity LOLPE (100=total damage to plant; 0=no damage to plant)
In short: as §1

[12] = test system: Setaria faberi (SETFA); assay: Test Example 1 post-emergence herbicidal activity; conditions: 360 h, rate 125 g/ha, evaluated 15 days later, read-out: Post-emergence activity SETFA (100=total damage to plant; 0=no damage to plant)
In short: as §1

Structure (SMILES)	pest or weed control at 250 g/ha [1]	pest or weed control at 250 g/ha [2]	pest or weed control at 250 g/ha [3]	pest or weed control at 250 g/ha [4]	pest or weed control at 250 g/ha [5]	pest or weed control at 250 g/ha [6]	pest or weed control at 125 g/ha [7]	pest or weed control at 125 g/ha [8]	pest or weed control at 125 g/ha [9]	pest or weed control at 125 g/ha [10]	pest or weed control at 125 g/ha [11]	pest or weed control at 125 g/ha [12]	Pre-emergence activity AVEFA (100=total damage to plant; 0=no damage to plant) [2]	Post-emergence activity DIGSA (100=total damage to plant; 0=no damage to plant) [9]
CCc1cc(C)cc(C)c1C1=C(O)[C@H]2[C@@H](C1=O)[C@@H]1CC[C@H]2O1 [Example T2]	100%	100%	100%	100%	100%	90%	100%	90%	100%	100%	100%	80%	–	–
CCc1cc(C)cc(CC)c1C1=C(O)[C@H]2[C@@H](C1=O)[C@@H]1C=C[C@H]2O1 [Example T4]	90%	90%	100%	100%	100%	90%	80%	90%	80%	100%	90%	80%	–	–
CCc1cc(CC)c(C2=C(O)[C@H]3[C@@H](C2=O)[C@@H]2CC[C@H]3O2)c(CC)c1 [Example T5]	100%	80%	100%	100%	100%	80%	70%	70%	100%	100%	80%	90%	–	–
Cc1cc(C)c(C2=C(O)[C@H]3[C@@H](C2=O)[C@]2(C)CC[C@@]3(C)O2)c(C)c1 [Example T6]	80%	30%	90%	90%	100%	80%	80%	80%	90%	90%	80%	80%	–	–
CCc1cc(C)cc(CC)c1C1=C(O)[C@H]2[C@@H](C1=O)[C@]1(C)CC[C@@]2(C)O1 [Example T7]	100%	80%	80%	90%	100%	90%	100%	90%	70%	90%	90%	90%	–	–
CCc1cc(C)cc(CC)c1C1=C(O)[C@H]2[C@@H](C1=O)[C@@H]1CC[C@@]2(C)O1 [Example T8]	100%	90%	100%	100%	100%	100%	100%	100%	100%	100%	100%	100%	–	–
CCc1cc(C)cc(CC)c1C1=C(O)[C@H]2[C@@H](C1=O)[C@@H]1CC[C@H]2O1 [Example T10]	80%	–	80%	90%	100%	80%	70%	70%	–	80%	80%	80%	70	50
C#CC1=C[C@@H]2O[C@H]1[C@H]1C(O)=C(c3c(CC)cc(C)cc3CC)C(=O)[C@H]12 [Example T12]	10%	10%	40%	0%	40%	40%	70%	50%	70%	70%	10%	70%	–	–
CCc1cc(C)cc(CC)c1C1=C(O)[C@H]2[C@@H](C1=O)[C@@H]1CC[C@@]2(CO)O1 [Example T14]	90%	90%	70%	90%	100%	100%	80%	80%	90%	100%	80%	100%	–	–
CCC1=NOC2C1[C@@H]1O[C@H]2[C@H]2C(O)=C(c3c(CC)cc(C)cc3CC)C(=O)[C@H]21 (stereo partly drawn) [Example T15]	40%	20%	30%	80%	40%	60%	50%	40%	80%	80%	40%	50%	–	–
CCc1cc(C)cc(CC)c1C1=C(O)[C@H]2[C@@H](C1=O)[C@@H]1CC[C@@]2(COC)O1 [Example T17]	100%	90%	100%	100%	100%	100%	100%	100%	100%	100%	90%	100%	–	–
CCOC[C@]12CC[C@H](O1)[C@@H]1C(=O)C(c3c(CC)cc(C)cc3CC)=C(O)[C@@H]12 [Example T18]	100%	100%	100%	100%	100%	100%	100%	100%	100%	100%	80%	100%	–	–
CCOCOC[C@]12CC[C@H](O1)[C@@H]1C(=O)C(c3c(CC)cc(C)cc3CC)=C(O)[C@@H]12 [Example T19]	100%	90%	90%	100%	100%	100%	100%	100%	90%	100%	90%	100%	–	–
CCCNC(=O)OC[C@]12CC[C@H](O1)[C@@H]1C(=O)C(c3c(CC)cc(C)cc3CC)=C(O)[C@@H]12 [Example T21]	90%	30%	10%	80%	80%	70%	90%	70%	30%	100%	70%	60%	–	–

— US8754242B2, “Herbicides” (Syngenta Crop Protection LLC, priority 2007, dated 2014)
